Some test systems named below: CAKI-1 renal; COLO 205 colon; DU-145 prostate; HS 578T breast; IGROV1 ovarian; M14 melanoma; MALME-3M melanoma; OVCAR-8 ovarian; SF-539 CNS; SK-MEL-28 melanoma; SK-MEL-5 melanoma; SK-OV-3 ovarian; SR leukemia; T-47D breast; TK-10 renal; UACC-257 melanoma; UACC-62 melanoma; HCC-2998 colon; RXF 393 renal.
What all share (assay): growth of human tumour cells (NCI), 48 h

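Following 48 hours of exposure in 96-well plates, responses at five concentrations were used to interpolate endpoints linearly. At the TGI there is no net growth.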

In the case of `CCCCC(=O)/C=c1/cc(C)[nH]c2cccc3cnn1c32`, the TGI with CAKI-1 renal, in the assay on COLO 205 colon, in the assay with DU-145 prostate, in the assay on HS 578T breast, with IGROV1 ovarian and with M14 melanoma was more than 100 µM each time. Further, the TGI in the assay with MALME-3M melanoma, in the assay with OVCAR-8 ovarian, in the assay on SF-539 CNS, in the assay on SK-MEL-28 melanoma, in the assay on SK-MEL-5 melanoma and in the assay with SK-OV-3 ovarian was more than 100 µM throughout. For the same molecule, the TGI with SR leukemia, in the assay on T-47D breast, with TK-10 renal, in the assay with UACC-257 melanoma and in the assay on UACC-62 melanoma was more than 100 µM in each case.
Turning to `COC(=O)c1cc(CC2Cc3cc4c(cc3C2=O)CCC4)cc2c1CCC2` (stereo not drawn), the TGI in the assay on CAKI-1 renal, with COLO 205 colon, in the assay with DU-145 prostate, in the assay on HCC-2998 colon, in the assay on HS 578T breast and with IGROV1 ovarian was more than 100 µM in each case. Besides, the TGI with M14 melanoma, with MALME-3M melanoma, with OVCAR-8 ovarian, in the assay on SF-539 CNS, in the assay on SK-MEL-28 melanoma and in the assay on SK-OV-3 ovarian was more than 100 µM in each case. In addition, the TGI in the assay with SR leukemia, in the assay on T-47D breast, with TK-10 renal, in the assay on UACC-257 melanoma and with UACC-62 melanoma was more than 100 µM in each case.
For `O=C1C=C(c2ccccc2)OC1C1Sc2ccccc2NC1=O` (stereo not drawn), the TGI in the assay with CAKI-1 renal was more than 100 µM; with COLO 205 colon, 18.5 µM; in the assay on DU-145 prostate, more than 81 µM; in the assay on HCC-2998 colon it was more than 31.3 µM; in the assay on HS 578T breast, more than 100 µM; with IGROV1 ovarian, more than 100 µM. Besides, the TGI with M14 melanoma was 35.6 µM; in the assay with MALME-3M melanoma, more than 100 µM; with OVCAR-8 ovarian, more than 46.4 µM; in the assay on RXF 393 renal, more than 94.4 µM; in the assay with SF-539 CNS it was more than 100 µM; in the assay with SK-MEL-28 melanoma, more than 100 µM. For the same molecule, the TGI in the assay on SK-MEL-5 melanoma is 38.2 µM; with SK-OV-3 ovarian, more than 33.8 µM; in the assay on T-47D breast, more than 100 µM; in the assay with TK-10 renal, more than 27.9 µM; in the assay with UACC-257 melanoma it was more than 24.4 µM; with UACC-62 melanoma, more than 49.3 µM.
In the case of `Cc1ccc(Sc2ccccc2C23OC(C)(C4C(=O)N(c5ccccc5)C(=O)C42)N(C)C3=O)cc1` (stereo not drawn), the TGI with CAKI-1 renal, in the assay with COLO 205 colon, in the assay with DU-145 prostate, with HS 578T breast, with IGROV1 ovarian and in the assay with M14 melanoma was more than 100 µM in each case. Besides, the TGI with MALME-3M melanoma, with OVCAR-8 ovarian, in the assay with RXF 393 renal, with SF-539 CNS, with SK-MEL-28 melanoma and with SK-MEL-5 melanoma was more than 100 µM each time. Also, the TGI in the assay on SK-OV-3 ovarian, in the assay on SR leukemia, in the assay with T-47D breast, in the assay with TK-10 renal, in the assay on UACC-257 melanoma and with UACC-62 melanoma was more than 100 µM in each case.
Take `COc1ccccc1-n1nnc2c(N)nc(N)nc21`: the TGI in the assay on CAKI-1 renal, in the assay on COLO 205 colon, with DU-145 prostate, with HS 578T breast, in the assay with IGROV1 ovarian and with M14 melanoma was more than 100 µM throughout. Further, the TGI in the assay with MALME-3M melanoma, with OVCAR-8 ovarian, in the assay with SF-539 CNS, with SK-MEL-28 melanoma, with SK-MEL-5 melanoma and in the assay with SK-OV-3 ovarian was more than 100 µM throughout. Also, the TGI in the assay with SR leukemia, with T-47D breast, in the assay on TK-10 renal, with UACC-257 melanoma and with UACC-62 melanoma was more than 100 µM in each case.
`C=C1CC[C@@H]2C13[C@@H]1[C@H](CC(=O)[C@@]23C)C1(C)C` (stereo partly drawn): the TGI with CAKI-1 renal, with COLO 205 colon, in the assay with DU-145 prostate, in the assay with HS 578T breast, in the assay with IGROV1 ovarian and in the assay with M14 melanoma was more than 100 µM throughout. Moreover, the TGI in the assay on MALME-3M melanoma, in the assay with OVCAR-8 ovarian, with RXF 393 renal, in the assay on SF-539 CNS, in the assay with SK-MEL-28 melanoma and in the assay on SK-MEL-5 melanoma was more than 100 µM throughout. Moreover, the TGI in the assay on SK-OV-3 ovarian, in the assay with SR leukemia, with T-47D breast, in the assay on TK-10 renal, in the assay with UACC-257 melanoma and with UACC-62 melanoma was more than 100 µM throughout.
`COc1ccc(Cc2cc(Cc3ccc(OC)cc3)cc(Cc3ccc(OC)cc3)c2)cc1`: the TGI in the assay on DU-145 prostate, in the assay on HCC-2998 colon, in the assay on HS 578T breast, with IGROV1 ovarian, in the assay on M14 melanoma and with MALME-3M melanoma was more than 100 µM throughout. The TGI with OVCAR-8 ovarian, in the assay with SF-539 CNS, in the assay on SK-MEL-28 melanoma, in the assay on SK-OV-3 ovarian, in the assay on SR leukemia and in the assay with T-47D breast was more than 100 µM throughout. For the same molecule, the TGI in the assay on TK-10 renal, with UACC-257 melanoma and with UACC-62 melanoma was more than 100 µM throughout.
Take `C=C(COCO)C(C)=O`: the TGI was 5.42 µM in the assay on CAKI-1 renal; 20.8 µM with COLO 205 colon; more than 65.8 µM in the assay with DU-145 prostate; more than 58.4 µM in the assay with HCC-2998 colon; 62.7 µM in the assay with HS 578T breast; 35.9 µM with IGROV1 ovarian. For the same molecule, the TGI was found to be 26.8 µM with M14 melanoma; 23.5 µM in the assay with MALME-3M melanoma; 24.6 µM in the assay on OVCAR-8 ovarian; 29.4 µM in the assay on RXF 393 renal; 13.6 µM with SF-539 CNS; 32 µM with SK-MEL-28 melanoma. The TGI in the assay on SK-MEL-5 melanoma is 31.5 µM; in the assay on SK-OV-3 ovarian, more than 100 µM; with T-47D breast, 36.7 µM; with TK-10 renal it was 26.9 µM; in the assay with UACC-257 melanoma, 31.1 µM; with UACC-62 melanoma, 32.3 µM.

(Values after PubChem BioAssay (NCI).)
